Source: US20030187056A1, “Live cell procedures to identify to identify compounds modulating intracellular distribution of phosphodiesterase( pde) enzymes” (priority 2000, published 2003)

Experiments:
PDE4A probes = experiment: Redistribution of the PDE4A probes (summary); assay type: cell-based; details: compound alone
HSPDE4A4-EGFP = molecular target: T1, HSPDE4A4-EGFP (Homo sapiens, UniProt P27815); experiment: Dispersal of preformed Rolipram-induced spots, HSPDE4A4-EGFP CHO cells; assay type: cell-based; details: yes/no
T1 construct: expressed in transfected cells

[1] = human, in vivo; cited from earlier work
PDE3 = PDE3 inhibition (literature values, PDE3/PDE4 specificity); assay type: biochemical; details: measure of specificity
Text: These compounds are termed specific to PDE4, since they inhibit other PDEs either weakly or not at all. The inverse ratio between IC50 of a compound to PDE4s versus its inhibition of other cAMP-degrading PDEs, such as PDE3s is often used as a measure of specificity.

HSPDE4A4-H506N-EGFP = molecular target: T2, HSPDE4A4-H506N-EGFP (Homo sapiens, UniProt P27815, H506N); experiment: Spot formation in CHO cells transfected with HSPDE4A4-H506N-EGFP; assay type: cell-based; details: clonal CHO, 23.5 hours
T2 construct: expressed in transfected cells
Method: (§1) The cells are then fixed with 4% formaldehyde buffer (pH7) for 1 hour, washed with PBS and stained with 1 μM Hoechst 33258 in PBS for 10 minutes at 25° C., then washed twice in PBS. Automated images are collected and analysed for the number of spots per cell as described in Example 2.
as §1, with “Cells are grown in HAM's F12 medium plus 10% FBS plus various concentrations of inhibitors for 23.5 hours. The” for “The”

HSPDE4A4catD-EGFP = molecular target: T3, HSPDE4A4catD-EGFP (Homo sapiens, UniProt P27815+Q08499); assay type: cell-based
T3 construct: the 3′-end catalytic region of HSPDE4D isoforms (nucleotides 700-2019 of HSPDE4D3 cDNA); HSPDE4A4 N-terminal fragment (nucleotides 1-1023 of L20965); expressed in transfected cells
Text: Transiently transfected or stably transfected (non-clonal) cells are allowed to adhere to chambered coverglasses in HAM's F12 medium containing 10% FBS.

T3 sequence (P27815+Q08499 fused with the stated changes, form open): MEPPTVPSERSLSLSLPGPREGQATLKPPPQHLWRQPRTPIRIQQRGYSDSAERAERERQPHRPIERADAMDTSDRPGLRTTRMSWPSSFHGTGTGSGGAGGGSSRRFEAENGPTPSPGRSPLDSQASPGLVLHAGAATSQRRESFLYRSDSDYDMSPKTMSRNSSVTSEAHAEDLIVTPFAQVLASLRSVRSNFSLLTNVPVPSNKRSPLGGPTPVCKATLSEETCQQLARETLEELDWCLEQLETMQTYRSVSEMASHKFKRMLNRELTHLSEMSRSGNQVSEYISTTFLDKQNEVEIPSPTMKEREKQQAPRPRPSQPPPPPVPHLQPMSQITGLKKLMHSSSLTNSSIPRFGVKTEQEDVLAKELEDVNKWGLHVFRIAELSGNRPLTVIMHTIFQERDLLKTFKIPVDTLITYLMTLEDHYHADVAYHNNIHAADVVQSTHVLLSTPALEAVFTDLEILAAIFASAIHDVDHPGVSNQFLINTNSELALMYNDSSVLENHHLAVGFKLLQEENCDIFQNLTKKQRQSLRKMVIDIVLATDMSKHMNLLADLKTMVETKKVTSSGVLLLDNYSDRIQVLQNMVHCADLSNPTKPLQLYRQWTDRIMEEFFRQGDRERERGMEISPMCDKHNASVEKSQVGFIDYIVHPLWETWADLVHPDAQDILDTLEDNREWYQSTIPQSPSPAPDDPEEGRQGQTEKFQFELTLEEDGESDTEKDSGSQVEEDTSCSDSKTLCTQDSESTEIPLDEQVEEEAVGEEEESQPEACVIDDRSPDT
T1 sequence (P27815 whole entry): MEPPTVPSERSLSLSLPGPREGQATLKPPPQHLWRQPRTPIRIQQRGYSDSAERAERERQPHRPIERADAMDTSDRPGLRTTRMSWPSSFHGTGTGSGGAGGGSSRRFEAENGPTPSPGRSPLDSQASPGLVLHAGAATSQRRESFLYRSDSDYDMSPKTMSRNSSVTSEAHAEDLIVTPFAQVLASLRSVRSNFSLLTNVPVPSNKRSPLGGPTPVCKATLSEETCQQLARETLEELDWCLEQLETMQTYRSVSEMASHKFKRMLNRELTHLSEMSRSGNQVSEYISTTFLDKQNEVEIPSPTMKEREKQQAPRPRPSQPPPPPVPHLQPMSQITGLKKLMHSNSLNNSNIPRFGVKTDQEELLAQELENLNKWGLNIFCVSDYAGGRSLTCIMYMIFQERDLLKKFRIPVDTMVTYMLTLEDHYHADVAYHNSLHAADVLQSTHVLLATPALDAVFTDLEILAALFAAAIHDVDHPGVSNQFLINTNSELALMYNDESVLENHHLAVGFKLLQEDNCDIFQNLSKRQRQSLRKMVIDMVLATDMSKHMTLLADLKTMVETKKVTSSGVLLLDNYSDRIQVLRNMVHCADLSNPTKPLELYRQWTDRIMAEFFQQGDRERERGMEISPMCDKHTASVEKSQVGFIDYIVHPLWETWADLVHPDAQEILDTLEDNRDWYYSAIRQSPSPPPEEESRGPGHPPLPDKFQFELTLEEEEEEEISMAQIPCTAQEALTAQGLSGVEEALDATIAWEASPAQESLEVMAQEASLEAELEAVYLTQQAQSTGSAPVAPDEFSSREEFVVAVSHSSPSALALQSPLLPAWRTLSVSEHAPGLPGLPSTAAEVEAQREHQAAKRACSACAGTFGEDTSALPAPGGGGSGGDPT
T2 sequence (P27815 whole entry H506N): as the sequence (P27815 whole entry) above, with H506N counted along it

In the case of O=c1c2cccnc2n(-c2cccc([N+](=O)[O-])c2)c(=O)n1Cc1ccncc1 [RS25344], the “redistribution of the PDE4A probes” value (PDE4A probes) is given as “indistinguishable from those induced by Rolipram treatment”, the “Removal of Rolipram-induced PDE4A4-spots” value (HSPDE4A4-EGFP) is given as “no” and the Clinical effect [1] is given as “anti-”. For the same compound, the Emesis [1] was “yes”, the “(IC50 PDE3)/(IC50 PDE4)” value (PDE3) was 1,170,000 and the EC50 (HSPDE4A4-H506N-EGFP) was 125 nM. The “spot formation (in words)” value (HSPDE4A4catD-EGFP; 1 μM RS25344 32 hours, stably transfected, 10 μM Rolipram 26 hours, transiently transfected) was “Many cells in this stable population respond by forming pairs of bright spots” and the “time until spots begin to be visible” value (HSPDE4A4catD-EGFP; after addition of 1 μM RS25344) was “about 6 hours”.
